Source: patent publication US9187472B2 (AbbVie Inc., priority 2012, dated 2015)

Columns and labels:
[1] = target: NAMPT (Homo sapiens, UniProt P43490); test: TR-FRET Binding Assay of NAMPT with PRPP; settings: with 200 μM PRPP and 2.5 mM ATP; 2 nM NAMPT, 2 nM probe, 16 hours equilibration
Method in brief: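 Read-out is TR-FRET after a 16 h equilibration allowing possible compound modification by the enzyme. Final mix: 2 nM NAMPT, 2 nM probe, 1 nM Tb-anti-His antibody, 200 μM PRPP, 2.5 mM ATP, 2% DMSO.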

[2] = target: NAMPT (human, recombinant, C-terminally His-tagged) (Homo sapiens, UniProt P43490); test: Time-Resolved Fluorescence Resonance Energy Transfer (TR-FRET) Binding Assay of NAMPT; settings: without substrates; 6.8 nM NAMPT, 200 nM probe, 3 hours equilibration
Method in brief: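 Competitive binding against an Oregon Green 488 tracer (200 nM), 6.8 nM His-tagged enzyme, 1 nM Tb antibody, 2% DMSO, 3 h at RT. IC50 derived from TR-FRET ratios.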

[3] = system: PC3 cells; test: NAMPT Cell Proliferation Assay; type: cell-based; settings: Homo sapiens, PC-3, 120 h, 5 days incubation, cell viability by Cell Titer Glo
Method in brief: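 Cell Titer Glo viability after 5-day exposure (37° C, 5% CO2); PC3, 500 cells/well, RPMI + 10% heat-inactivated FBS, overnight attachment before dosing. Dose range 10 μM to 1×10^−5 μM, 10-fold steps. IC50 = sigmoidal fit of % inhibition.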

NAMPT, sequence (P43490 whole entry): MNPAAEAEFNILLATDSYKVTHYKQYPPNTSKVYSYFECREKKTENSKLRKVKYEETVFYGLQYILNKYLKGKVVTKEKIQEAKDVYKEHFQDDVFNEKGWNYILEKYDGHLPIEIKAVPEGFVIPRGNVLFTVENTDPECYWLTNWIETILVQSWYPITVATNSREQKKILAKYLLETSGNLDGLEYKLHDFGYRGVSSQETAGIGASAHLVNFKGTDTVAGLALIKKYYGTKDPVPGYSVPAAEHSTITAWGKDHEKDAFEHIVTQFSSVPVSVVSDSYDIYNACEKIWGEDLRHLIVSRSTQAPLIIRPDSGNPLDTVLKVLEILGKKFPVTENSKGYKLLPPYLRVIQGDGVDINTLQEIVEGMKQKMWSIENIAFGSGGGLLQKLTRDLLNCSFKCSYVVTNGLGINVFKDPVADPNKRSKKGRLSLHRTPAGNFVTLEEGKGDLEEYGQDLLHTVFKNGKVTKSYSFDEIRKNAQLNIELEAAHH
NAMPT (human, recombinant, C-terminally His-tagged), sequence (P43490 whole entry): as above

Row | SMILES | IC50 [1] [µM] | IC50 [2] [µM] | IC50 [3] [µM]
1 | CC(C)OCC(=O)N1CC=C(c2ccc(C(=O)NCc3ccc4nccn4c3)cc2)CC1 [Example 98, N-(imidazo[1,2-a]pyridin-6-ylmethyl)-4-{1-[(propan-2-yloxy)acetyl]-1,2,3,6-tetrahydropyridin-4-yl}benzamide] | 0.000367 | 0.12 | 0.0194
2 | COCCOCC(=O)N1CC=C(c2ccc(C(=O)NCc3ccc4nccn4c3)cc2)CC1 [Example 103, N-(imidazo[1,2-a]pyridin-6-ylmethyl)-4-{1-[(2-methoxyethoxy)acetyl]-1,2,3,6-tetrahydropyridin-4-yl}benzamide] | 0.00144 | 0.84 | 0.0621
3 | O=C(NCc1ccc2nccn2c1)c1ccc(C2=CCN(C(=O)c3ccccc3)CC2)cc1 [Example 104, 4-(1-benzoyl-1,2,3,6-tetrahydropyridin-4-yl)-N-(imidazo[1,2-a]pyridin-6-ylmethyl)benzamide] | 0.002 | 0.135 | 0.00846
4 | CC(C)C(=O)N1CCC(c2ccc(NC(=O)Nc3ccc4nccn4c3)cc2)CC1 [Example 106, 1-imidazo[1,2-a]pyridin-6-yl-3-{4-[1-(2-methylpropanoyl)piperidin-4-yl]phenyl}urea] | 0.000201 | 0.247 | 0.0787
5 | O=C(NCCCCC1CCN(C(=O)c2ccccc2)CC1)Nc1ccc2nccn2c1 [Example 107, 1-[4-(1-benzoylpiperidin-4-yl)butyl]-3-imidazo[1,2-a]pyridin-6-ylurea] | 0.000492 | 0.0451 | 0.0108
6 | O=C(NCc1ccc2nccn2c1)c1cnc(N2CCc3ccccc3C2)s1 [Example 108, 2-(3,4-dihydroisoquinolin-2(1H)-yl)-N-(imidazo[1,2-a]pyridin-6-ylmethyl)-1,3-thiazole-5-carboxamide] | 0.00105 | 1.77 | 7.66
7 | O=C(Nc1ccc(C2CCN(C(=O)C3CCOCC3)CC2)cc1)Nc1ccc2nccn2c1 [Example 109, 1-imidazo[1,2-a]pyridin-6-yl-3-{4-[1-(tetrahydro-2H-pyran-4-ylcarbonyl)piperidin-4-yl]phenyl}urea] | 0.000209 | 0.34 | 0.0522
8 | O=C(Nc1ccc(C2CCN(C(=O)CC3CCOC3)CC2)cc1)Nc1ccc2nccn2c1 (stereo not drawn) [Example 110, 1-imidazo[1,2-a]pyridin-6-yl-3-{4-[1-(tetrahydrofuran-3-ylacetyl)piperidin-4-yl]phenyl}urea] | 0.000174 | 0.423 | 0.202
9 | O=C(Nc1ccc(C2CCN(C(=O)CC3CCCO3)CC2)cc1)Nc1ccc2nccn2c1 (stereo not drawn) [Example 111, 1-imidazo[1,2-a]pyridin-6-yl-3-{4-[1-(tetrahydrofuran-2-ylacetyl)piperidin-4-yl]phenyl}urea] | 0.000209 | 0.263 | 0.0755
10 | O=C(Nc1ccc(C2CCN(C(=O)c3ccccc3)CC2)cc1)Nc1ccc2nccn2c1 [Example 112, 1-[4-(1-benzoylpiperidin-4-yl)phenyl]-3-imidazo[1,2-a]pyridin-6-ylurea] | 0.000169 | 0.0465 | 0.00696
11 | O=C(Nc1ccc(C2CCN(C(=O)C3CCCO3)CC2)cc1)Nc1ccc2nccn2c1 (stereo not drawn) [Example 113, 1-imidazo[1,2-a]pyridin-6-yl-3-{4-[1-(tetrahydrofuran-2-ylcarbonyl)piperidin-4-yl]phenyl}urea] | 0.000169 | 0.356 | 0.0933
12 | CC(C)(C)OC(=O)N1CCC(Oc2ccc(C(=O)NCc3ccc4nccn4c3)cc2)CC1 [Example 114, tert-butyl 4-{4-[(imidazo[1,2-a]pyridin-6-ylmethyl)carbamoyl]phenoxy}piperidine-1-carboxylate] | 0.00111 | 0.818 | 0.142
13 | CC(C)OCCNC(=O)N(CC1CCCO1)c1ncc(C(=O)NCc2ccc3nccn3c2)s1 (stereo not drawn) [Example 115, N-(imidazo[1,2-a]pyridin-6-ylmethyl)-2-[{[2-(propan-2-yloxy)ethyl]carbamoyl}(tetrahydrofuran-2-ylmethyl)amino]-1,3-thiazole-5-carboxamide] | 0.000676 | 0.243 | 0.00638
14 | O=C(NCc1ccc2nccn2c1)c1cnc(N2C(=O)OCC2C2CCOC2)s1 (stereo not drawn) [Example 116, N-(imidazo[1,2-a]pyridin-6-ylmethyl)-2-[2-oxo-4-(tetrahydrofuran-3-yl)-1,3-oxazolidin-3-yl]-1,3-thiazole-5-carboxamide] | 0.00069 | 0.863 | 0.0613

Further lines, results first:

Row | IC50 [1] [µM] | IC50 [2] [µM] | IC50 [3] [µM] | SMILES
15 | 0.00063 | 0.204 | 0.0187 | CC(C)C(=O)N1CC=C(c2ccc(C(=O)NCc3ccc4nccn4c3)cc2)CC1 [Example 90, N-(imidazo[1,2-a]pyridin-6-ylmethyl)-4-[1-(2-methylpropanoyl)-1,2,3,6-tetrahydropyridin-4-yl]benzamide]
16 | 0.00126 | 0.174 | 0.0139 | CC(C)(O)C(=O)N1CC=C(c2ccc(C(=O)NCc3ccc4nccn4c3)cc2)CC1 [Example 91, 4-[1-(2-hydroxy-2-methylpropanoyl)-1,2,3,6-tetrahydropyridin-4-yl]-N-(imidazo[1,2-a]pyridin-6-ylmethyl)benzamide]
17 | 0.000881 | 0.183 | 0.00948 | O=C(NCc1ccc2nccn2c1)c1ccc(C2=CCN(C(=O)CN3CCOCC3)CC2)cc1 [Example 92, N-(imidazo[1,2-a]pyridin-6-ylmethyl)-4-[1-(morpholin-4-ylacetyl)-1,2,3,6-tetrahydropyridin-4-yl]benzamide]
18 | 0.00139 | 0.389 | 0.00713 | O=C(NCc1ccc2nccn2c1)c1ccc(C2=CCN(C(=O)CC3CCOCC3)CC2)cc1 [Example 93, N-(imidazo[1,2-a]pyridin-6-ylmethyl)-4-[1-(tetrahydro-2H-pyran-4-ylacetyl)-1,2,3,6-tetrahydropyridin-4-yl]benzamide]
19 | 0.000593 | 0.29 | 0.0142 | O=C(NCc1ccc2nccn2c1)c1ccc(C2=CCN(C(=O)CC3CCOC3)CC2)cc1 (stereo not drawn) [Example 94, N-(imidazo[1,2-a]pyridin-6-ylmethyl)-4-[1-(tetrahydrofuran-3-ylacetyl)-1,2,3,6-tetrahydropyridin-4-yl]benzamide]
20 | 0.000991 | 0.201 | 0.0106 | O=C(NCc1ccc2nccn2c1)c1ccc(C2=CCN(C(=O)CC3CCCO3)CC2)cc1 (stereo not drawn) [Example 95, N-(imidazo[1,2-a]pyridin-6-ylmethyl)-4-[1-(tetrahydrofuran-2-ylacetyl)-1,2,3,6-tetrahydropyridin-4-yl]benzamide]
21 | 0.00156 | 0.192 | 0.00965 | O=C(NCc1ccc2nccn2c1)c1ccc(C2=CCN(C(=O)CCC3CCCO3)CC2)cc1 (stereo not drawn) [Example 96, N-(imidazo[1,2-a]pyridin-6-ylmethyl)-4-{1-[3-(tetrahydrofuran-2-yl)propanoyl]-1,2,3,6-tetrahydropyridin-4-yl}benzamide]
22 | 0.000333 | 0.109 | 0.00455 | O=C(NCc1ccc2nccn2c1)c1ccc(C2=CCN(C(=O)CC3CCCC3)CC2)cc1 [Example 97, 4-[1-(cyclopentylacetyl)-1,2,3,6-tetrahydropyridin-4-yl]-N-(imidazo[1,2-a]pyridin-6-ylmethyl)benzamide]
23 | 0.000411 | 0.119 | 0.0264 | O=C(NCc1ccc2nccn2c1)c1ccc(C2=CCN(C(=O)C3CCCO3)CC2)cc1 (stereo not drawn) [Example 99, N-(imidazo[1,2-a]pyridin-6-ylmethyl)-4-[1-(tetrahydrofuran-2-ylcarbonyl)-1,2,3,6-tetrahydropyridin-4-yl]benzamide]
24 | 0.000169 | 0.102 | 0.0162 | O=C(NCc1ccc2nccn2c1)c1ccc(C2=CCN(C(=O)C3CCOC3)CC2)cc1 (stereo not drawn) [Example 100, N-(imidazo[1,2-a]pyridin-6-ylmethyl)-4-[1-(tetrahydrofuran-3-ylcarbonyl)-1,2,3,6-tetrahydropyridin-4-yl]benzamide]
25 | 0.00173 | 0.332 | 0.00244 | O=C(NCc1ccc2nccn2c1)c1ccc(C2=CCN(C(=O)C3CCOCC3)CC2)cc1 [Example 101, N-(imidazo[1,2-a]pyridin-6-ylmethyl)-4-[1-(tetrahydro-2H-pyran-4-ylcarbonyl)-1,2,3,6-tetrahydropyridin-4-yl]benzamide]
26 | 0.00121 | 0.385 | 0.013 | O=C(NCc1ccc2nccn2c1)c1ccc(C2=CCN(C(=O)C3COCCO3)CC2)cc1 (stereo not drawn) [Example 102, 4-[1-(1,4-dioxan-2-ylcarbonyl)-1,2,3,6-tetrahydropyridin-4-yl]-N-(imidazo[1,2-a]pyridin-6-ylmethyl)benzamide]
27 | 0.000476 | 0.106 | 0.00661 | O=C(NCc1ccc2nccn2c1)c1ccc(C2=CCN(C(=O)C3CCC(F)(F)CC3)CC2)cc1 [Example 105, 4-{1-[(4,4-difluorocyclohexyl)carbonyl]-1,2,3,6-tetrahydropyridin-4-yl}-N-(imidazo[1,2-a]pyridin-6-ylmethyl)benzamide]
